Numbered stars: 1 amine (or outer) side, 2 acyl side, 3 side chain; on linkers, the order of the positions; unused ones are H or OH. Bridge positions count the residues as written; N and C are the ends. Square brackets hold non-standard residues; d marks the D form. Peptide text beside a SMILES is read from it. I, II: the chains in the order shown. Actinocin(1to9) = Cc1c2oc3c(C)ccc(C(=O)[*:2])c3nc-2c(C(=O)[*:1])c(N)c1=O; NMeV = CN[C@H](C(=O)O)C(C)C; Sar = CNCC(=O)O
Key:
[1] = tested on: L1210
Description: (§1) Cross resistance profile versus L1210/R71 cells.

[2] = physchem; conditions: octanol/water, pH 7.4
[3] = octanol/water, pH 7.4
[4] = tested on: CCRF-CEM; assay: Effect on cross resistance of CCRF-CEM cells resistant to vincristine.; assay type: functional, Homo sapiens
[5] = tested on: CHRC5 cell line; assay type: functional, Cricetulus griseus
Description: Effect on collateral sensitivity of CHRC5 cells to local anesthetics/steroids.

[6] = tested on: CHO; assay: Cross resistance of chinese hamster cells resistant to actinomycin D as log of ratio of molar concentration of compound inducing 50% inhibition of growth in resistant and sensitive cells; assay type: functional, Cricetulus griseus
[7] = tested on: L1210; assay: Cross resistance to the compound expressed as log of ratio of molar concentration of drug inducing 50% inhibition of growth in murine leukemia L1210/R71 and L1210/0 cells; assay type: functional, Mus musculus
[8] = tested on: CHO
Description: (§2) Effect on cross resistance of CHO cells resistant to colchicine (CHRC5)

[9] = tested on: CHRC5 cell line
Description: Collateral sensitivity of CHRC5 cells to local anesthetics/steroids as log of ratio of molar concentration of drug inducing 50% growth inhibition in CHO AUXB1 cells to that of CHRC5 cells

[10] = tested on: L1210; assay: Cross resistance to the compound expressed as as log of ratio of molar concentration of drug inducing 50% inhibition of growth in murine leukemia L1210/R71 and L1210/0 cells; assay type: functional, Mus musculus
[11] = tested on: L1210; conditions: Mus musculus
Description: as §1

[12] = tested on: CHO; conditions: Cricetulus griseus
Description: as §2

[13] = tested on: CHO; assay: Effect on cross resistance of chinese hamster ovary CHO cells resistant to colchicine (CHRC5); assay type: functional, Cricetulus griseus

Compound | Log CR [1] | logD [2] | other results
NC(=O)NO [HYDROXYUREA] | 0.3 | -1.27 | 
BLEOMYCIN [listing 1 of 2 here] |  |  | logD [3]: -2.38
COc1cc2cc(c1Cl)N(C)C(=O)C[C@H](OC(=O)[C@H](C)N(C)C(C)=O)[C@]1(C)O[C@H]1[C@H](C)[C@@H]1C[C@@](O)(NC(=O)O1)[C@H](OC)/C=C/C=C(\C)C2 [MAYTANSINE] | 1.23 |  | Log CR [4]: 2.85
CC[C@]1(O)C[C@@H]2CN(CCc3c([nH]c4ccccc34)[C@@](C(=O)OC)(c3cc4c(cc3OC)N(C)[C@H]3[C@@](O)(C(=O)OC)[C@H](OC(C)=O)[C@]5(CC)C=CCN6CC[C@]43[C@@H]65)C2)C1 [VINBLASTINE] |  |  | Log CR [4]: 1.28
Nc1n[nH]c(N)n1 [GUANAZOLE] | 0.08 | -1.61 | 
O=P1(N(CCCl)CCCl)NCCCO1 (configuration not stated) [CYCLOPHOSPHAMIDE ANHYDROUS] |  | 0.63 | Log sensitivity [5]: 0.52
CC1(C)N=C(N)N=C(N)N1c1cccc(O)c1 | 1.86 | -3.67 | 
Sc1ncnc2nc[nH]c12 [MERCAPTOPURINE ANHYDROUS] |  | 0.01 | Log CR [6]: -0.3; Log CR [7]: 0.6
Nc1ncn([C@@H]2O[C@H](CO)[C@@H](O)[C@H]2O)c(=O)n1 [AZACITIDINE] | 1.54 | -2.17 | 
O=c1[nH]cc(F)c(=O)[nH]1 [FLUOROURACIL] | -0.04 | -0.89 | Log CR [8]: 0
S=P(N1CC1)(N1CC1)N1CC1 [THIOTEPA] |  | 0.53 | Log CR [8]: 0
CO[C@H](C(=O)[C@@H](O)[C@@H](C)O)[C@@H]1Cc2cc3cc(O[C@H]4C[C@@H](O[C@@H]5C[C@@H](O)[C@H](O)[C@@H](C)O5)[C@H](O)[C@@H](C)O4)c(C)c(O)c3c(O)c2C(=O)[C@H]1O[C@H]1C[C@@H](O[C@@H]2C[C@@H](O)[C@@H](O[C@@H]3C[C@](C)(O)[C@H](O)[C@@H](C)O3)[C@@H](C)O2)[C@H](O)[C@@H](C)O1 [PLICAMYCIN] | 0.66 |  | 
CC[C@]1(O)C[C@@H]2CN(CCc3c([nH]c4ccccc34)[C@@](C(=O)OC)(c3cc4c(cc3OC)N(C)[C@H]3[C@@](O)(C(N)=O)[C@H](O)[C@]5(CC)C=CCN6CC[C@]43[C@@H]65)C2)C1 [VINDESINE] |  | 0.67 | Log CR [4]: 3
CCN(CC)CCOC(=O)c1ccc(N)cc1 [PROCAINE] |  | 0.3 | Log sensitivity [9]: 0.4
COc1ccc(C[C@H](N)C(=O)N[C@H]2[C@@H](O)[C@H](n3cnc4c(N(C)C)ncnc43)O[C@@H]2CO)cc1 [PUROMYCIN] | 1.82 | 0.86 | Log CR [8]: 2.02
CC/C(=C(\c1ccccc1)c1ccc(OCCN(C)C)cc1)c1ccccc1 [TAMOXIFEN] | 0.59 |  | 
CC(=O)[C@H]1CC[C@H]2[C@@H]3CCC4CC(=O)CC[C@]4(C)[C@H]3CC[C@]12C (some centres not stated) |  | 3.99 | Log sensitivity [5]: 1
Cc1c2oc3c(C)ccc(C(=O)N[C@@H]4C(=O)N[C@H](C(C)C)C(=O)N5CCC[C@H]5C(=O)N(C)CC(=O)N(C)[C@@H](C(C)C)C(=O)O[C@@H]4C)c3nc-2c(C(=O)N[C@@H]2C(=O)N[C@H](C(C)C)C(=O)N3CCC[C@H]3C(=O)N(C)CC(=O)N(C)[C@@H](C(C)C)C(=O)O[C@@H]2C)c(N)c1=O [DACTINOMYCIN] (I: T[dV]P[Sar][NMeV] / II: T[dV]P[Sar][NMeV]; ester I:1-I:C, II:1-II:C; linker I:N-II:N via Actinocin(1to9)) | 0.12 | 3.21 | 
COc1cc(NCc2ccc3nc(N)nc(N)c3c2C)cc(OC)c1OC [TRIMETREXATE] |  | 0.84 | Log CR [7]: 1.75
CC1(C)N=C(N)N=C(N)N1c1ccccc1 | 2.18 | -3 | 
CC1(C)N=C(N)N=C(N)N1c1cccc(C(N)=O)c1 | 1.85 |  | logD [3]: -4.49
CC[n+]1c(-c2ccccc2)c2cc(N)ccc2c2ccc(N)cc21.[Br-] [HOMIDIUM BROMIDE] |  | 1.15 | Log CR [8]: 1.04
C[N+]1(C)CCC(OC(=O)C(c2ccccc2)c2ccccc2)CC1.[I-] [4-DAMP] | 1.63 | 2.64 | 
CC(C)NCC(O)COc1cccc2ccccc12 (configuration not stated) [PROPRANOLOL] |  |  | Log sensitivity [9]: 0.7
CCCC[N+](CCCC)(CCCC)CCCC.[Br-] [TETRABUTYLAMMONIUM BROMIDE] |  | -3 | Log sensitivity [5]: -0.84
CN(Cc1cnc2nc(N)nc(N)c2n1)c1ccc(C(=O)N[C@@H](CCC(=O)O)C(=O)O)cc1 [METHOTREXATE] |  | -2.52 | Log CR [6]: 0.04; Log CR [10]: 2.55

Compound | Log CR [1] | logD [2] | other results
COc1cccc2c1C(=O)c1c(O)c3c(c(O)c1C2=O)C[C@@](O)(C(C)=O)C[C@@H]3O[C@H]1C[C@H](N)[C@H](O)[C@H](C)O1 [DAUNORUBICIN] |  |  | Log CR [4]: 1.2
BLEOMYCIN [listing 2 of 2 here] |  |  | Log CR [11]: 0.24; Log CR [12]: 0
CN[C@H]1CCc2cc(OC)c(OC)c(OC)c2-c2ccc(OC)c(=O)cc21 [DEMECOLCINE] |  | 1.37 | Log CR [8]: 1.2
CC1(C)N=C(N)N=C(N)N1c1cccc(Br)c1 | 2.06 | -2.14 | 
COc1cccc2c1C(=O)c1c(O)c3c(c(O)c1C2=O)C[C@@](O)(C(=O)CO)C[C@@H]3O[C@H]1C[C@H](N)[C@H](O)[C@H](C)O1 [DOXORUBICIN] |  | 0.1 | Log CR [4]: 1.46; Log CR [8]: 1.4
CC[C@H]1OC(=O)[C@H](C)[C@@H](O[C@H]2C[C@@](C)(OC)[C@@H](O)[C@H](C)O2)[C@H](C)[C@@H](O[C@@H]2O[C@H](C)C[C@H](N(C)C)[C@H]2O)[C@](C)(O)C[C@@H](C)C(=O)[C@H](C)[C@@H](O)[C@]1(C)O [ERYTHROMYCIN] |  | 1.26 | Log CR [8]: 0.7
CCCCCCCCCCCCc1cccc(N2C(N)=NC(N)=NC2(C)C)c1 | 0.52 | 3.41 | 
Cc1nc(N)nc(N)c1-c1ccc(Cl)c(Cl)c1 [METOPRINE] |  | 2.56 | Log CR [7]: 1.7
CCc1nc(N)nc(N)c1-c1ccc(Cl)c(Cl)c1 [ETOPRINE] |  | 2.93 | Log CR [10]: 1.69
COc1ccc(OC)c(Cc2cnc3nc(N)nc(N)c3c2C)c1 [PIRITREXIM] |  | 1.77 | Log CR [7]: 1.89
C=C1[C@@H](C)[C@H]2[C@H](Cc3ccccc3)NC(=O)[C@]23OC(=O)/C=C/[C@H](O)CCC[C@@H](C)C/C=C/[C@H]3[C@@H]1O [CYTOCHALASIN B] |  | 3.37 | Log CR [8]: 1.04
Nc1ccc2cc3ccc(N)cc3nc2c1 [PROFLAVINE] |  | 1.1 | Log CR [6]: 0.46; Log CR [13]: 0.6
CO[C@H](C(=O)[C@@H](O)[C@@H](C)O)[C@@H]1Cc2cc3cc(O[C@H]4C[C@@H](O[C@H]5C[C@@H](O)[C@H](O)[C@@H](C)O5)[C@H](O)[C@@H](C)O4)c(C)c(O)c3c(O)c2C(=O)[C@H]1O[C@H]1C[C@@H](O[C@H]2C[C@@H](O[C@H]3C[C@](C)(O)[C@H](O)[C@@H](C)O3)[C@@H](O)[C@@H](C)O2)[C@H](O)[C@@H](C)O1 [PLICAMYCIN] |  | -0.25 | 
O=C(O)CCCc1ccc(N(CCCl)CCCl)cc1 [CHLORAMBUCIL] |  | 1.47 | Log CR [8]: 0.3
CC[C@]1(O)C[C@H]2CN(CCc3c([nH]c4ccccc34)[C@@](C(=O)OC)(c3cc4c(cc3OC)N(C=O)[C@H]3[C@@](O)(C(=O)OC)[C@H](OC(C)=O)[C@]5(CC)C=CCN6CC[C@]43[C@@H]65)C2)C1 [VINCRISTINE] |  | 2.57 | Log CR [4]: 2.76
N[C@@H](Cc1ccc(N(CCCl)CCCl)cc1)C(=O)O |  | -0.52 | Log CR [8]: 1.18
CC(C)[C@@H]1NC(=O)[C@H](C)OC(=O)[C@@H](C(C)C)NC(=O)[C@@H](C(C)C)OC(=O)[C@H](C(C)C)NC(=O)[C@H](C)OC(=O)[C@@H](C(C)C)NC(=O)[C@@H](C(C)C)OC(=O)[C@H](C(C)C)NC(=O)[C@H](C)OC(=O)[C@@H](C(C)C)NC(=O)[C@@H](C(C)C)OC1=O [VALINOMYCIN] | 0.59 | 3.24 | 
CCCCNc1ccc(C(=O)OCCN(C)C)cc1 [TETRACAINE] |  |  | logD [3]: 1; Log sensitivity [9]: 0.7
C[C@]12CC[C@H]3[C@@H](CCC4=CC(=O)CC[C@@]43C)[C@@H]1CC[C@@H]2C(=O)CO [DESOXYCORTICOSTERONE] |  | 3.08 | Log sensitivity [5]: 1
CC(=O)c1cccc(N2C(N)=NC(N)=NC2(C)C)c1 | 2.2 | -3.55 | 
O=[N+]([O-])c1cccc2ccc[n+]([O-])c12 |  | 1.02 | 
C[n+]1c2cc(N)ccc2cc2ccc(N)cc21.[Cl-] [EUFLAVINE] |  | 1.6 | Log CR [13]: 0.84
COc1cc2c(c(OC)c1OC)-c1ccc(OC)c(=O)cc1[C@@H](NC(C)=O)CC2 [COLCHICINE] |  | 1.03 | Log CR [4]: 1.08; Log CR [8]: 2.26
O=c1[nH]c(=O)n([C@H]2C[C@H](O)[C@@H](CO)O2)cc1Br [BROXURIDINE] |  | -0.29 | 
CC[C@H]1CN2CCc3cc(OC)c(OC)cc3[C@@H]2C[C@@H]1C[C@H]1NCCc2cc(OC)c(OC)cc21 [EMETINE] |  | 3.24 | Log CR [13]: 1.46
CC1(C)N=C(N)N=C(N)N1c1cccc(COc2cccc(-c3ccccc3)c2)c1 | 1.22 | 0.69 | 

From ChEMBL document CHEMBL1124835, “Structure-activity relationships of antineoplastic agents in multidrug resistance” (J Med Chem, 1990)
